Test [1] relates to Methicillin Resistant Staphylococcus aureus strain USA 200. The test can be described thus: Minimum inhibitory concentration (MIC), CLSI broth micro-dilution, S. aureus. It counts as cell-based. As to conditions: Staphylococcus aureus, MRSA / USA200; Table 6; MRSA USA 200; cation adjusted Mueller Hinton Broth + 0.002% Tween-80; 35° C., 22 hours. The essentials: (§1)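 Antibacterial potency is measured as MIC by the CLSI broth dilution method. Bacteria at OD600 0.0005 in Tween-80-supplemented cation-adjusted Mueller Hinton broth face ten twofold compound dilutions for 22 h at 35° C.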
On the technique in general: In broth dilution the organism is exposed to a series of concentrations in liquid medium.

Test [2] deals with Escherichia coli ATCC 25922. The experiment in a line: Minimum inhibitory concentration (MIC), CLSI broth micro-dilution, E. coli. It counts as cell-based. As to conditions: Escherichia coli, ATCC25922, 22 h, Table 6, cation adjusted Mueller Hinton Broth + 0.002% Tween-80, 35° C. The essentials:
as §1

As to `Cc1nc(-c2ccc(CC(C)C)cc2)ccc1C(=O)N[C@@H](CCN)C(=O)N(C)[C@@H]1C(=O)N[C@@H](C)C(=O)N[C@H](C(=O)NCC#N)Cc2ccc(O)c(c2)-c2cc1ccc2O` (racemic) [Compound 430, rac-(8S,11S,14S)-N-(cyanomethyl)-3,18-dihydroxy-11-methyl-14-[methyl-[rac-(2S)-4-amino-2-[[6-(4-isobutylphenyl)-2-methyl-pyridine-3-carbonyl]amino]butanoyl]amino]-10,13-dioxo-9,12-diazatricyclo[13.3.1.12,6]icosa-1(18),2(20),3,5,15(19),16-hexaene-8-carboxamide], the MIC (usually the lowest concentration that inhibits growth of the organism) in test [1] worked out at 0.15 µM; in test [2] it was 4.7 µM.

On to `Cc1nc(-c2ccc(C(C)(C)C)cc2)ncc1C(=O)N[C@@H](CCN)C(=O)N(C)[C@@H]1C(=O)N[C@@H](C)C(=O)N[C@H](C(=O)NCC#N)Cc2ccc(O)c(c2)-c2cc1ccc2O` (racemic) [Compound 431, rac-(8S,11S,14S)-N-(cyanomethyl)-3,18-dihydroxy-11-methyl-14-[methyl-[rac-(2S)-4-amino-2-[[2-(4-tert-butylphenyl)-4-methyl-pyrimidine-5-carbonyl]amino]butanoyl]amino]-10,13-dioxo-9,12-diazatricyclo[13.3.1.12,6]icosa-1(18),2(20),3,5,15(19),16-hexaene-8-carboxamide], for which the MIC was found to be 0.18 µM in test [1] and 3.9 µM in test [2].

Take `CCCCCc1ccc(-c2ncc(C(=O)N[C@@H](CCN)C(=O)N(C)[C@@H]3C(=O)N[C@@H](C)C(=O)N[C@H](C(=O)NCC#N)Cc4ccc(O)c(c4)-c4cc3ccc4O)c(C)n2)cc1` (racemic) [Compound 432, rac-(8S,11S,14S)-N-(cyanomethyl)-3,18-dihydroxy-11-methyl-14-[methyl-[rac-(2S)-4-amino-2-[[4-methyl-2-(4-pentylphenyl)pyrimidine-5-carbonyl]amino]butanoyl]amino]-10,13-dioxo-9,12-diazatricyclo[13.3.1.12,6]icosa-1(18),2(20),3,5,15(19),16-hexaene-8-carboxamide]: the minimal inhibitory concentration (MIC) in test [1] is 0.045 µM; in test [2], 1.4 µM.

`Cc1nc(-c2ccc(C(C)(C)C)cc2)nc(C)c1C(=O)N[C@@H](CCN)C(=O)N(C)[C@@H]1C(=O)N[C@@H](C)C(=O)N[C@H](C(=O)NCC#N)Cc2ccc(OCCCN)c(c2)-c2cc1ccc2OCCCN` (racemic) [Compound 434, rac-(8S,11S,14S)-3,18-bis(3-aminopropoxy)-N-(cyanomethyl)-11-methyl-14-[methyl-[rac-(2S)-4-amino-2-[[2-(4-tert-butylphenyl)-4,6-dimethyl-pyrimidine-5-carbonyl]amino]butanoyl]amino]-10,13-dioxo-9,12-diazatricyclo[13.3.1.12,6]icosa-1(18),2(20),3,5,15(19),16-hexaene-8-carboxamide]: the MIC was found to be 0.023 µM in test [1] and 0.21 µM in test [2].

Regarding `CCCCCOc1ccc(-c2nc(C)c(C(=O)N[C@@H](CCN)C(=O)N(C)[C@@H]3C(=O)N[C@@H](C)C(=O)N[C@H](C(=O)NCC#N)Cc4ccc(OCCCN)c(c4)-c4cc3ccc4OCCCN)c(C)n2)cc1` (racemic) [Compound 435, rac-(8S,11S,14S)-3,18-bis(3-aminopropoxy)-N-(cyanomethyl)-11-methyl-14-[methyl-[rac-(2S)-4-amino-2-[[4,6-dimethyl-2-(4-pentoxyphenyl)pyrimidine-5-carbonyl]amino]butanoyl]amino]-10,13-dioxo-9,12-diazatricyclo[13.3.1.12,6]icosa-1(18),2(20),3,5,15(19),16-hexaene-8-carboxamide], the MIC in test [1] stood at 0.012 µM; in test [2], 0.094 µM.

For the molecule `Cc1nc(-c2ccc(C(C)(C)C)cc2)nc(C)c1C(=O)N[C@@H](CCN)C(=O)N(C)[C@@H]1C(=O)N[C@@H](C)C(=O)N[C@H](C(=O)NCC#N)Cc2ccc(OCCCCN)c(c2)-c2cc1ccc2OCCCCN` (racemic) [Compound 437, rac-(8S,11S,14S)-3,18-bis(4-aminobutoxy)-N-(cyanomethyl)-11-methyl-14-[methyl-[rac-(2S)-4-amino-2-[[2-(4-tert-butylphenyl)-4,6-dimethyl-pyrimidine-5-carbonyl]amino]butanoyl]amino]-10,13-dioxo-9,12-diazatricyclo[13.3.1.12,6]icosa-1(18),2(20),3,5,15(19),16-hexaene-8-carboxamide], the MIC stood at 0.031 µM in test [1] and 0.38 µM in test [2].

Take `Cc1nc(-c2ccc(C(C)(C)C)cc2)ncc1C(=O)N[C@@H](CCN)C(=O)N(C)[C@@H]1C(=O)N[C@@H](C)C(=O)N[C@H](C(=O)NCC#N)Cc2ccc(OC[C@H](C)N)c(c2)-c2cc1ccc2OC[C@H](C)N` (racemic) [Compound 438, rac-(8S,11S,14S)-N-(cyanomethyl)-11-methyl-14-[methyl-[rac-(2S)-4-amino-2-[[2-(4-tert-butylphenyl)-4-methyl-pyrimidine-5-carbonyl]amino]butanoyl]amino]-10,13-dioxo-3,18-bis[rac-(2S)-2-aminopropoxy]-9,12-diazatricyclo[13.3.1.12,6]icosa-1(18),2(20),3,5,15(19),16-hexaene-8-carboxamide]: the minimal inhibitory concentration (MIC) in test [1] is 0.012 µM; in test [2], 0.16 µM.

Regarding `CCCCCCCCc1ccc(C(=O)N[C@@H](CC(=O)NC)C(=O)N(C)[C@@H]2C(=O)N[C@@H](C)C(=O)N[C@H](C(=O)NCC#N)Cc3ccc(OCCN)c(c3)-c3cc2ccc3OCCN)c(C)c1` (racemic) [Compound 443, rac-(2S)-N,N′-dimethyl-2-[(2-methyl-4-octyl-benzoyl)amino]-N-[rac-(7S,10S,13S)-3,18-bis(2-aminoethoxy)-13-(cyanomethylcarbamoyl)-10-methyl-8,11-dioxo-9,12-diazatricyclo[13.3.1.12,6]icosa-1(19),2,4,6(20),15,17-hexaen-7-yl]butanediamide], the MIC turned out to be 0.27 µM in test [1] and 4.2 µM in test [2].

Regarding `CCCCCCCCc1ccc(C(=O)N[C@@H](CCC(=O)N(C)C)C(=O)N(C)[C@@H]2C(=O)N[C@@H](C)C(=O)N[C@H](C(=O)NCC#N)Cc3ccc(OCCN)c(c3)-c3cc2ccc3OCCN)c(C)c1` (racemic) [Compound 444, rac-(2S)-N,N′,N′-trimethyl-2-[(2-methyl-4-octyl-benzoyl)amino]-N-[rac-(7S,10S,13S)-3,18-bis(2-aminoethoxy)-13-(cyanomethylcarbamoyl)-10-methyl-8,11-dioxo-9,12-diazatricyclo[13.3.1.12,6]icosa-1(19),2,4,6(20),15,17-hexaen-7-yl]pentanediamide], the MIC was 0.064 µM in test [1] and 4.1 µM in test [2].

For `CCCCCCCCc1ccc(C(=O)N[C@@H](CCC(=O)NCC)C(=O)N(C)[C@@H]2C(=O)N[C@@H](C)C(=O)N[C@H](C(=O)NCC#N)Cc3ccc(OCCN)c(c3)-c3cc2ccc3OCCN)c(C)c1` (racemic) [Compound 445, rac-(2S)-N′-ethyl-N-methyl-2-[(2-methyl-4-octyl-benzoyl)amino]-N-[rac-(7S,10S,13S)-3,18-bis(2-aminoethoxy)-13-(cyanomethylcarbamoyl)-10-methyl-8,11-dioxo-9,12-diazatricyclo[13.3.1.12,6]icosa-1(19),2,4,6(20),15,17-hexaen-7-yl]pentanediamide], the MIC in test [1] is 0.13 µM; in test [2], 4.1 µM.

As to `CCCCCCCCc1ccc(C(=O)N[C@@H](CCC(=O)NCCO)C(=O)N(C)[C@@H]2C(=O)N[C@@H](C)C(=O)N[C@H](C(=O)NCC#N)Cc3ccc(OCCN)c(c3)-c3cc2ccc3OCCN)c(C)c1` (racemic) [Compound 446, rac-(2S)-N′-(2-hydroxyethyl)-N-methyl-2-[(2-methyl-4-octyl-benzoyl)amino]-N-[rac-(7S,10S,13S)-3,18-bis(2-aminoethoxy)-13-(cyanomethylcarbamoyl)-10-methyl-8,11-dioxo-9,12-diazatricyclo[13.3.1.12,6]icosa-1(19),2,4,6(20),15,17-hexaen-7-yl]pentanediamide], the MIC in test [1] was determined as 0.032 µM; in test [2] it was 4.1 µM.

As to `CCCCCCCCc1ccc(C(=O)N[C@@H](CCC(=O)NC2COC2)C(=O)N(C)[C@@H]2C(=O)N[C@@H](C)C(=O)N[C@H](C(=O)NCC#N)Cc3ccc(OCCN)c(c3)-c3cc2ccc3OCCN)c(C)c1` (racemic) [Compound 447, rac-(2S)-N-methyl-2-[(2-methyl-4-octyl-benzoyl)amino]-N′-(oxetan-3-yl)-N-[rac-(7S,10S,13S)-3,18-bis(2-aminoethoxy)-13-(cyanomethylcarbamoyl)-10-methyl-8,11-dioxo-9,12-diazatricyclo[13.3.1.12,6]icosa-1(19),2,4,6(20),15,17-hexaen-7-yl]pentanediamide], the MIC in test [1] was 0.033 µM; in test [2], 4.2 µM.

As to `CCCCCCCCc1ccc(C(=O)N[C@@H](CCC(=O)NC(CO)CO)C(=O)N(C)[C@@H]2C(=O)N[C@@H](C)C(=O)N[C@H](C(=O)NCC#N)Cc3ccc(OCCN)c(c3)-c3cc2ccc3OCCN)c(C)c1` (racemic) [Compound 448, rac-(2S)-N′-[2-hydroxy-1-(hydroxymethyl)ethyl]-N-methyl-2-[(2-methyl-4-octyl-benzoyl)amino]-N-[rac-(7S,10S,13S)-3,18-bis(2-aminoethoxy)-13-(cyanomethylcarbamoyl)-10-methyl-8,11-dioxo-9,12-diazatricyclo[13.3.1.12,6]icosa-1(19),2,4,6(20),15,17-hexaen-7-yl]pentanediamide], the results for the MIC in test [1] and in test [2] were 0.13 µM and 4.1 µM, respectively.

The record behind these values is patent publication US20260274892A1, “MACROCYCLIC BROAD SPECTRUM ANTIBIOTICS” (RQx Pharmaceuticals, Inc., priority 2017, published 2026).
